Publication PMC4052532, “Biodistribution and SPECT Imaging Study of ^99mTc Labeling NGR Peptide in Nude Mice Bearing Human HepG2 Hepatoma” (BioMed Research International, 2014)
Read-outs that look alike come from different tables or passages of the source. Where a SMILES comes first, the peptide text is derived from it. Bridges are numbered along the chain shown (N, C = ends).

Key:
[1] = Biodistribution studies; type: in vivo; details: female, BALB/c nude, mouse, total radioactivity; for tissue uptake at 1 h / tissue uptake at 4 h / tissue uptake at 8 h / tissue uptake at 12 h: n = 5, mean ± SD; for tissue uptake at 4 h: 4 h postinjection; for tissue uptake at 8 h: 8 h postinjection; for tissue uptake at 12 h: 12 h postinjection
Procedure: HepG2 cells were grown in high glucose DMEM culture medium. All cell lines were cultured in medium supplemented with 10% (v/v) fetal bovine serum (Gibco, USA), 1% mycillin, and 1% Glutamine (Beyotime, China) at 37°C in a humidified atmosphere with 5% CO2. Using female BALB/c nude mice (4–6 weeks of age), HepG2 tumor model was established by subcutaneous injection of 2 × 10^6 HepG2 tumor cells (0.1 mL) into the right upper flanks. When the tumor volume reached 0.8~1.0 cm in diameter (2-3 weeks after inoculation), the tumor-bearing mice were used for SPECT imaging and biodistribution studies. All animal studies were approved by Clinical Center at the FMMU.
Nude mice bearing human HepG2 hepatoma were randomly divided into 5 groups and injected with ~7.4 MBq of ^99mTc-NGR with or without excess unlabelled NGR peptide (20 mg/kg). After injection of the tracer, mice were sacrificed and dissected. The radioactivity in the HepG2 tumor, major organs, and muscle were collected and weighed wet with tubes (%ID/g). Mean uptake (%ID/g) for a group of animals was calculated with standard deviations. Values were expressed as mean ± SD (n = 5/group).

[2] = In vitro stability in PBS (radio-TLC); type: physicochemical; details: PBS pH 7.4, 37°C, 12 h incubation, percentage of parent tracer by radio-TLC
Procedure: (§1) The stability of ^99mTc-labeled NGR peptide in PBS and mouse serum at 37°C was studied at 1, 3, 6, and 12 h. Then the percentage of parent tracer was determined by radio-TLC (Table 1).

[3] = In vitro stability in mouse serum (radio-TLC); type: in vitro ADME; details: 37°C, 12 h incubation, percentage of parent tracer by radio-TLC, read-out: ^99mTc-NGR peptide remained intact
Procedure: as §1

[4] = tested on: HepG2 cells; assay: Cell uptake study; type: cell-based, human; details: 37°C, ~370 kBq/well, gamma counter, n = 3, mean ± SD
Procedure: HepG2 cells were seeded into 48-well plates at a density of 2 × 10^5 cells per well 24 h prior to the experiment. HepG2 cells were then incubated with ^99mTc-labeled NGR peptides (~370 kBq/well) at 37°C for 15, 30, 60, 120, and 240 min. After incubation, tumor cells were washed three times with ice cold PBS and harvested by trypsinization with 0.25% trypsin/0.02% EDTA (Hyclone, USA). Cell suspensions were collected and measured in a gamma counter (Zhida, Shannxi, China). Cell uptake data was presented as percentage of total input radioactivity added to the culture medium after decay correction. Experiments were performed twice with triplicate wells.

[5] = blood, iv, ~7.4 MBq i.v., read-out: Blood uptake
[6] = heart, iv, ~7.4 MBq i.v., read-out: Heart uptake
[7] = intestine, iv, ~7.4 MBq i.v., read-out: Intestine uptake
[8] = iv, HepG2 tumor, ~7.4 MBq i.v., read-out: Tumor uptake
[9] = kidney, iv, ~7.4 MBq i.v., read-out: Kidney uptake
[10] = liver, iv, ~7.4 MBq i.v., read-out: Liver uptake
[11] = lung, iv, ~7.4 MBq i.v., read-out: Lung uptake
[12] = muscle, iv, ~7.4 MBq i.v., read-out: Muscle uptake
[13] = spleen, iv, ~7.4 MBq i.v., read-out: Spleen uptake
[14] = stomach, iv, ~7.4 MBq i.v., read-out: Stomach uptake

tissue uptake at 1 h ([1]; blood, iv, 1 h postinjection, ~7.4 MBq i.v., read-out: Blood uptake): 3.82 ± 0.41 %ID/g
tissue uptake at 4 h [1, 5]: 1.75 ± 0.39 %ID/g
tissue uptake at 8 h [1, 5]: 0.98 ± 0.22 %ID/g
tissue uptake at 12 h [1, 5]: 0.75 ± 0.31 %ID/g
tissue uptake at 1 h ([1]; blood, iv, Blocking (1 h), coinjection of unlabelled NGR 20 mg/kg, read-out: Blood uptake): 2.56 ± 0.34 %ID/g
tissue uptake at 1 h ([1]; heart, iv, 1 h postinjection, ~7.4 MBq i.v., read-out: Heart uptake): 3.74 ± 0.54 %ID/g
tissue uptake at 4 h [1, 6]: 2.26 ± 0.33 %ID/g
tissue uptake at 8 h [1, 6]: 1.15 ± 0.32 %ID/g
tissue uptake at 12 h [1, 6]: 1.07 ± 0.25 %ID/g
tissue uptake at 1 h ([1]; heart, iv, Blocking (1 h), coinjection of unlabelled NGR 20 mg/kg, read-out: Heart uptake): 2.73 ± 0.29 %ID/g
tissue uptake at 1 h ([1]; intestine, iv, 1 h postinjection, ~7.4 MBq i.v., read-out: Intestine uptake): 2.65 ± 1.06 %ID/g
tissue uptake at 4 h [1, 7]: 2.18 ± 0.96 %ID/g
tissue uptake at 8 h [1, 7]: 1.93 ± 0.22 %ID/g
tissue uptake at 12 h [1, 7]: 1.6 ± 0.27 %ID/g
tissue uptake at 1 h ([1]; intestine, iv, Blocking (1 h), coinjection of unlabelled NGR 20 mg/kg, read-out: Intestine uptake): 2.4 ± 0.59 %ID/g
tissue uptake at 1 h ([1]; iv, HepG2 tumor, 1 h postinjection, ~7.4 MBq i.v., read-out: Tumor uptake): 2.52 ± 0.83 %ID/g
tissue uptake at 4 h [1, 8]: 3.03 ± 0.71 %ID/g
tissue uptake at 8 h [1, 8]: 3.26 ± 0.63 %ID/g
tissue uptake at 12 h [1, 8]: 2.81 ± 0.25 %ID/g
tissue uptake at 1 h ([1]; iv, HepG2 tumor, Blocking (1 h), coinjection of unlabelled NGR 20 mg/kg, read-out: Tumor uptake): 1.65 ± 0.61 %ID/g
tissue uptake at 1 h ([1]; kidney, iv, 1 h postinjection, ~7.4 MBq i.v., read-out: Kidney uptake): 7.93 ± 2.13 %ID/g
tissue uptake at 4 h [1, 9]: 7.03 ± 0.95 %ID/g
tissue uptake at 8 h [1, 9]: 6.21 ± 0.43 %ID/g
tissue uptake at 12 h [1, 9]: 5.96 ± 0.41 %ID/g
tissue uptake at 1 h ([1]; kidney, Blocking (1 h), coinjection of unlabelled NGR 20 mg/kg, read-out: Kidney uptake): 5.03 ± 0.97 %ID/g
tissue uptake at 1 h ([1]; liver, iv, 1 h postinjection, ~7.4 MBq i.v., read-out: Liver uptake): 4.07 ± 0.76 %ID/g
tissue uptake at 4 h [1, 10]: 3.85 ± 0.73 %ID/g
tissue uptake at 8 h [1, 10]: 3.44 ± 0.52 %ID/g
tissue uptake at 12 h [1, 10]: 3.26 ± 0.47 %ID/g
tissue uptake at 1 h ([1]; liver, Blocking (1 h), coinjection of unlabelled NGR 20 mg/kg, read-out: Liver uptake): 3.27 ± 0.16 %ID/g
tissue uptake at 4 h [1, 11]: 2.13 ± 0.44 %ID/g
tissue uptake at 8 h [1, 11]: 1.86 ± 0.38 %ID/g
tissue uptake at 12 h [1, 11]: 1.21 ± 0.31 %ID/g
tissue uptake at 1 h ([1]; lung, iv, Blocking (1 h), coinjection of unlabelled NGR 20 mg/kg, read-out: Lung uptake): 2.04 ± 0.28 %ID/g
tissue uptake at 1 h ([1]; muscle, iv, 1 h postinjection, ~7.4 MBq i.v., read-out: Muscle uptake): 0.53 ± 0.33 %ID/g
tissue uptake at 4 h [1, 12]: 0.46 ± 0.11 %ID/g
tissue uptake at 8 h [1, 12]: 0.43 ± 0.14 %ID/g
tissue uptake at 12 h [1, 12]: 0.39 ± 0.22 %ID/g
tissue uptake at 1 h ([1]; muscle, iv, Blocking (1 h), coinjection of unlabelled NGR 20 mg/kg, read-out: Muscle uptake): 0.48 ± 0.27 %ID/g
tissue uptake at 1 h ([1]; spleen, iv, 1 h postinjection, ~7.4 MBq i.v., read-out: Spleen uptake): 2.37 ± 0.43 %ID/g
tissue uptake at 4 h [1, 13]: 2.09 ± 0.6 %ID/g
tissue uptake at 8 h [1, 13]: 1.88 ± 0.42 %ID/g
tissue uptake at 12 h [1, 13]: 1.72 ± 0.37 %ID/g
tissue uptake at 1 h ([1]; spleen, Blocking (1 h), coinjection of unlabelled NGR 20 mg/kg, read-out: Spleen uptake): 1.89 ± 0.22 %ID/g
tissue uptake at 1 h ([1]; stomach, iv, 1 h postinjection, ~7.4 MBq i.v., read-out: Stomach uptake): 3.07 ± 0.56 %ID/g
tissue uptake at 4 h [1, 14]: 2.2 ± 0.26 %ID/g
tissue uptake at 8 h [1, 14]: 1.61 ± 0.39 %ID/g
tissue uptake at 12 h [1, 14]: 1.56 ± 0.32 %ID/g
tissue uptake at 1 h ([1]; stomach, Blocking (1 h), coinjection of unlabelled NGR 20 mg/kg, read-out: Stomach uptake): 3.41 ± 0.31 %ID/g
tissue to tissue ratio at 1 h ([1]; tumor/kidney, iv, 7.4 MBq, 1 h postinjection, read-out: Tumor-to-normal tissue uptake ratio T/K): 0.32 ± 0.15
tissue to tissue ratio at 1 h ([1]; tumor/liver, iv, 7.4 MBq, 1 h postinjection, read-out: Tumor-to-normal tissue uptake ratio T/L): 0.62 ± 0.33
tissue to tissue ratio at 1 h ([1]; tumor/muscle, iv, 7.4 MBq, 1 h postinjection, read-out: Tumor-to-normal tissue uptake ratio T/M): 4.75 ± 0.91
tissue to tissue ratio at 8 h ([1]; tumor/muscle, iv, 7.4 MBq, 8 h (highest value), read-out: tumor/muscle (T/NT) value): 7.58 ± 1.92
^99mTc-NGR peptide remained intact [2]: ~92%
remaining at 12 h [3]: ~92%
Structure (SMILES): N=C(N)NCCC[C@@H]1NC(=O)CNC(=O)[C@H](CC(N)=O)NC(=O)[C@@H](NC(=O)CNC(=O)CNC(=O)[C@@H](N)Cc2ccc(O)cc2)CSSC[C@@H](C(=O)O)NC1=O [^99mTc-NGR, metal not drawn] (H-YGGCNGRC-OH; disulfide 4-8)
uptake in HepG2 cells (percentage of total input radioactivity) ([4]; 15 min): about 0.49 ± 0.05%
uptake in HepG2 cells (percentage of total input radioactivity) ([4]; 2 h (maximum)): 1.52 ± 0.13%
uptake in HepG2 cells (percentage of total input radioactivity) ([4]; 4 h): About 1.35 ± 0.27%
